Measurements: the SangsterLogP compilation

Assay: not given

SMILES | logP
OC1(Cn2cncn2)CCCC1Cc1ccc(F)cc1 (stereo not given) | 2.39
OC1(Cn2cncn2)CCCC1Cc1ccc(C(F)(F)F)cc1 (stereo not given) | 3.07
OC1(Cn2cncn2)CCCC1Cc1cccc(C(F)(F)F)c1 (stereo not given) | 3.07
N#Cc1ccc(CC2CCCC2(O)Cn2cncn2)cc1 (stereo not given) | 1.7
OC1(Cn2cncn2)CCCC1Cc1c(F)c(F)c(F)c(F)c1F (stereo not given) | 3.16

Results, then the compound that gave them:

logP | SMILES
2.95 | OC1(Cn2cncn2)CCCC1Cc1ccccc1Cl (stereo not given)
3.11 | OC1(Cn2cncn2)CCCC1Cc1ccc(Cl)cc1 (stereo not given)
2.98 | OC1(Cn2cncn2)CCCC1Cc1cccc(Cl)c1 (stereo not given)
2.51 | OC1(Cn2cncn2)CCCC1Cc1ccc(F)c(F)c1 (stereo not given)
2.6 | OC1(Cn2cncn2)CCCC1Cc1c(F)cccc1F (stereo not given)
3.87 | OC1(Cn2cncn2)CCCC1Cc1ccc(Cl)cc1Cl (stereo not given)
2.6 | OC1(Cn2cncn2)CCCC1Cc1ccc(F)cc1F (stereo not given)
3.27 | OC1(Cn2cncn2)CCCC1Cc1ccc(Cl)cc1F (stereo not given)

Assay: method code SF, from DOI: 10.1021/bk-1995-0606.ch013

SMILES | logP
OC1(Cn2cncn2)CCCC1Cc1ccccc1 (stereo not given) | 2.26
OC1(Cn2cncn2)CCCC1Cc1ccc(Br)cc1 (stereo not given) | 3.27
CCC1CCC(Cc2ccc(Br)cc2)C1(O)Cn1cncn1 (stereo not given) | 4.18
Cc1ccc(CC2CCCC2(O)Cn2cncn2)cc1 (stereo not given) | 2.71
CCCOC/C(=N\c1ccc(Cl)cc1C(F)(F)F)n1ccnc1 | 4.5
CCC1CCC(Cc2ccc(-c3ccccc3)cc2)C1(O)Cn1cncn1 (stereo not given) | 4.83
OC1(Cn2cncn2)CCCC1Cc1ccc(-c2ccccc2)cc1 (stereo not given) | 3.92
CCC1CCC(Cc2ccc(C(C)(C)C)cc2)C1(O)Cn1cncn1 (stereo not given) | 4.88
CCC1CCC(Cc2ccc(F)cc2)C1(O)Cn1cncn1 (stereo not given) | 3.3
CC(C)(C)c1ccc(CC2CCCC2(O)Cn2cncn2)cc1 (stereo not given) | 3.97

Results, then the compound that gave them:

logP | SMILES
3.99 | CC1(C)CCC(Cc2ccc(Br)cc2)C1(O)Cn1cncn1 (stereo not given)
4.78 | CCC1CCC(Cc2ccc(Cl)cc2Cl)C1(O)Cn1cncn1 (stereo not given)
3.43 | Cc1ccc(CC2CCC(C)(C)C2(O)Cn2cncn2)cc1 (stereo not given)
3.99 | CC1(C)CCC(Cc2ccc(Cl)cc2F)C1(O)Cn1cncn1 (stereo not given)
3.16 | CC1(C)CCC(Cc2ccc(Cl)c(O)c2)C1(O)Cn1cncn1 (stereo not given)
4.02 | CCC1CCC(Cc2ccc(Cl)cc2)C1(O)Cn1cncn1 (stereo not given)
4.64 | CC1(C)CCC(Cc2ccc(-c3ccccc3)cc2)C1(O)Cn1cncn1 (stereo not given)
